# Results published in paper PMC10580319, “Quantitative Imaging of the Action of vCPP2319, an Antimicrobial Peptide from a Viral Scaffold, against Staphylococcus aureus Biofilms of a Clinical Isolate” (ACS Infectious Diseases, 2023).
# Where no end group is shown, it is not given here.
# What was measured:
# [1] = test system: S. aureus clinical isolate biofilms; experiment: CLSM assay, SYTO 9 / WGA Alexa Fluor 633, polysaccharide density and mass, biofilm height; assay type: cell-based, Staphylococcus aureus; settings: fold variation relative to untreated biofilm, 0.13 mg/mL α-amylase, 25 μM vCPP2319, 4 h each
# Experimental: (EC 3.2.1.1) on the EPS matrix of S. aureus biofilms was evaluated using a CLSM-based assay. Briefly, the bacterial cells and the matrix components of S. aureus biofilms were imaged using SYTO 9 and Wheat Germ Agglutinin (WGA) Alexa Fluor 633 Conjugate (Invitrogen, Carlsbad, CA, USA). Preformed biofilms (see above) were washed once with PBS and stained with 3 μM SYTO 9 and 5 μg/mL WGA Alexa Fluor 633, for 15 min at room temperature.
# SYTO 9 was excited using the Argon laser (488 nm), and both TO-PRO-3 iodide and WGA Alexa Fluor 633 were excited with the Helium–Neon laser (633 nm), respectively. Image acquisition was performed on a Zeiss LSM 710 confocal laser point-scanning inverted microscope (Carl Zeiss MicroImaging, Oberkochen, Germany) equipped with a Plan-Apochromat DIC 63× oil immersion objective (1.40 numerical aperture). For each experiment, three different areas were imaged. All images were analyzed with the image processor Fiji.[54] TO-PRO-3 mean fluorescence intensity over the image was quantified from the xy plane of an inner layer (z = 2 μm, z being the distance from the surface of the glass slide) using Fiji’s incorporated plug-ins.[54] WGA mean fluorescence intensity over the image was quantified from the xy plane of an inner layer (z = 2 μm, z being the distance from the surface of the glass slide) and also from a z-projection of the sum of the z-stack slices, using Fiji’s incorporated plug-ins.[54] Biofilm height was determined from the xz orthogonal images using ZEN lite software (Carl Zeiss MicroImaging).
# (§1) The mean emission fluorescence intensity of WGA integrated over a plane xy at a specific depth, z, If,WGA,xy, is proportional to the mass of polysaccharides in that plane.
# [2] = test system: S. aureus ATCC 6538 biofilms; experiment: Crystal violet binding assay, biofilm biomass; assay type: cell-based, Staphylococcus aureus; settings: 24 h-preformed biofilms, treatment for 4 or 24 h
# Experimental: (§2) The effect of vCPP2319 on 24 h-preformed S. aureus biofilms was evaluated using three distinct methods, as previously described:[24] the metabolic activity and viability of biofilm-embedded cells was determined using a resazurin reduction fluorometric assay and a colony count assay, respectively. The total biofilm biomass was quantified by using a crystal violet assay.
# (§3) Crystal violet is a basic dye that binds to negatively charged molecules, such as those in biofilms EPS matrix and on bacterial membrane surface.[51]S. aureus suspensions at 1 × 10^6 CFU/mL were incubated in a 96-well microtiter clear flat-bottomed polystyrene plate (Corning) for 24 h at 37 °C. […] (EC 3.2.1.1), ranging from 0.0078 to 0.5 mg/mL, for 4 h at 37 °C. Untreated biofilms were used as a control. Biofilms were washed twice with MHB and incubated with 0.25% (v/v in sterile Milli-Q water) crystal violet (Sigma-Aldrich) for 30 min at room temperature. After each sample was washed three times with MHB, crystal violet was solubilized with 95% (v/v) ethanol (Carlo Erba Reagents S.A.S., France) by repeated pipetting. Biofilm biomass was quantified by measuring the absorbance at 590 nm of each sample in an infinite M200 microplate reader (Tecan). The percentage of crystal violet staining was determined relative to the control after blank (0.25% (v/v) crystal violet in sterile Milli-Q water) correction.
# [3] = test system: HMEC-1 cells; experiment: Cytotoxicity, CellTiter-Blue cell viability assay; assay type: cell-based, human; settings: 24 h incubation
# Experimental: Human dermal microvascular endothelium cells (HMEC-1, ATCC CRL-3243) (ATCC, Manassas, VA, USA) were cultured as a monolayer using MCDB-131 medium (without L-glutamine) with phenol red (Gibco, Thermo-Fisher, Waltham, MA, USA). The medium was supplemented with 10% (v/v) fetal bovine serum (FBS), 1% (v/v) penicillin/streptomycin (Gibco, Thermo-Fisher), 10 ng/mL epidermal growth factor (EGF), 1 μg/mL hydrocortisone (Sigma-Aldrich, St. Louis, MO, USA), and 10 mM glutamine (ATCC), according to the manufacturer’s instructions. Cells were grown in a humidified atmosphere of 5% CO2 at 37 °C. The cytotoxicity of vCPP2319 toward HMEC-1 cells was determined using CellTiter-Blue Cell Viability Assay (Promega, USA), according to the manufacturer’s instructions. HMEC-1 cells were seeded into a sterile 96-well clear flat-bottomed polystyrene plate (Corning) at 2.5 × 10^4 cells/well and incubated for 24 h at 37 °C. After medium removal, cells were washed twice with PBS. […] The fluorescence intensity was measured with excitation and emission at 560 and 590 nm, respectively, using the infinite M200 microplate reader (Tecan). […] HMEC-1 cells metabolic activity (%) was determined using the following equation: [drawing 2] 2 where FP is the fluorescence intensity of peptide-treated cells, FNC is the fluorescence intensity of negative controls, and FPC is the fluorescence intensity of positive controls. […]
# [4] = test system: S. aureus clinical isolate biofilms; experiment: Crystal violet binding assay, biofilm biomass, with global mass and density ratios; assay type: cell-based, Staphylococcus aureus
# Experimental: as §2, §3, §1
substance,measurement,setting,value
WRRRYRRWRRRRRWRRRPRR-NH2 [vCPP2319],ρi/ρcontrol (polysaccharides) eq 4,[1]; WGA fluorescence at z = 2 μm,0.7
same,mi/mcontrol (polysaccharides) eq 5,[1]; integrated WGA fluorescence over total biofilm,0.5
same,ρi/ρcontrol (polysaccharides) eq 6,[1]; integrated WGA fluorescence over zz divided by biofilm height,0.8
same,effect on biofilm biomass,[2],no significant changes
same,effect on metabolic activity of HMEC-1 cells,"[3]; 50 μM, highest concentration tested",slight effect
same,effect on metabolic activity of HMEC-1 cells,[3]; concentrations of up to 25 μM,no effect
same,biofilm biomass reduction,"[4]; 24 h-preformed biofilms, 4 h treatment, crystal violet, relative to untreated biofilm",approximately 30%
same,mi/mcontrol (global) eq 7,"[4]; fold variation relative to untreated biofilm, fraction of crystal violet absorbance retained",0.7
same,ρi/ρcontrol (global) eq 8,"[4]; fold variation relative to untreated biofilm, from crystal violet data and biofilm volume, for both agents fi assumed as for α-amylase alone",1.2
